Experimental data: US8163789B2, “Selective and dual-action p53/MDM2/MDM4 antagonists” (University of Pittsburgh—of the Commonwealth System of …, priority 2007, dated 2012)

Legend:
HCT116 cells = assay: GI50 against HCT116 cells in culture; assay type: cell-based; details: Homo sapiens, HCT-116, imidazole scaffold, Table 2
Procedure: A second approach for increasing affinity, entails introducing substituents in the 2-position of the imidazole ring to gain additional van der Waals interaction and even water solubility. A substituent in the 2-position would mimic the interactions of the Leu (FSDLWKLL) in p53, which contributes additional van der Waals interactions in addition to FWL. Optimization of compounds that belong to this family was carried out as shown in Scheme 1. Table 2 lists representative analogs that were synthesized with their GI50 values against HCT116 cells in culture. The chemistry to accomplish substitution at position-2 of the immidazole ring would involve generation of the carbanion using LDA and subsequent alkylation with iminium salts or other alkylating agents.

MDM2 = MDM2 (Homo sapiens, UniProt Q00987); assay: NMR-based binding assay, MDM2
MDM2, sequence (Q00987 whole entry, the tested form may be a part): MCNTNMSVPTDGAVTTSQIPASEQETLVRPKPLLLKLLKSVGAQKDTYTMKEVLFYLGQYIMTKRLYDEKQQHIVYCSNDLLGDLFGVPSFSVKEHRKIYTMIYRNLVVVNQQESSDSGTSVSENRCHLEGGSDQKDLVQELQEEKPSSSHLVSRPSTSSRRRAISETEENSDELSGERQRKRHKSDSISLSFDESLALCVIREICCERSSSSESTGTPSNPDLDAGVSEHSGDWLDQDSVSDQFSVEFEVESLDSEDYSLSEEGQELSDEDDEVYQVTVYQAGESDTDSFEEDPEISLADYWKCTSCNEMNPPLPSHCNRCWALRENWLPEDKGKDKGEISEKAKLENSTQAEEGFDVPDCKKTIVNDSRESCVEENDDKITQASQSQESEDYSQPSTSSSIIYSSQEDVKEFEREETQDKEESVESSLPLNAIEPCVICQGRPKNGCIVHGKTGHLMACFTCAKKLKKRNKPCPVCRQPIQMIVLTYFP
Procedure: (§1) In one of its aspects, the present invention provides a method for generating and screening virtual libraries based on 40 different MCRs having the indole fragment. The inventive method comprises docking individual molecules from the virtual library into a high resolution structure of the MDM2 protein. Docking is carried out by maintaining the same positional constraints on the indole ring of the docked molecule to those for the indole side chain in the high resolution X-ray structure of MDM2-p53 peptide. The compounds identified from docking experiments as potential inhibitors of MDM2-p53 interaction are then synthesized and tested for the inhibitory activity using an NMR-based binding assay. […] A similar strategy was used to identify and select compounds that could potentially be used as inhibitors for disrupting MDM4-p53 interaction.
Such an NMR-based screen has many advantages. For example, this screening method allows for the rapid determination of an approximate KA for the small molecule inhibitors, with the possibility of obtaining a more accurate KA value at a later time by titrating the p53-MDM2 complex using increasing concentrations of the inhibitor of interest. A second advantage of using this technique is that it allows identification of the binding site of the small molecule in the target protein by investigating the chemical shift perturbations that occur on binding. This information can then be used to further refine the chemical scaffold with an aim towards improving the affinity of the molecule for its target. Finally, NMR-based screening yields valuable information about promiscuous inhibitors which act as false positives by precipitating the target protein through hydrophobic effects. This information is not available when classical screening approaches such as fluorescence polarization or ELISA type assays are used for screening.
(§2) The compounds identified using MCR were then screened for the ability to bind MDM2 or MDM4 (KA) (primary assay). The molecules identified as binders of MDM2 or MDM4 by the primary assay are subsequently tested for their ability to disrupt the MDM2/p53-peptide complex (KD) in a secondary assay. Based on the results from the primary and secondary assays, further downstream assays involving screening using various cell lines (PC3, A549, MDAMB231) and determination of the growth inhibition constants may be performed for a select sub-set of molecules. Western blot analysis of certain compounds is performed to determine p53, MDM2, and p21 content.

MDM4 = biological target: T1, MDM4 (Homo sapiens, UniProt O15151); assay: NMR-based binding assay, MDM4; details: imidazolidine scaffold, Table 3
T1 sequence (O15151 1-490): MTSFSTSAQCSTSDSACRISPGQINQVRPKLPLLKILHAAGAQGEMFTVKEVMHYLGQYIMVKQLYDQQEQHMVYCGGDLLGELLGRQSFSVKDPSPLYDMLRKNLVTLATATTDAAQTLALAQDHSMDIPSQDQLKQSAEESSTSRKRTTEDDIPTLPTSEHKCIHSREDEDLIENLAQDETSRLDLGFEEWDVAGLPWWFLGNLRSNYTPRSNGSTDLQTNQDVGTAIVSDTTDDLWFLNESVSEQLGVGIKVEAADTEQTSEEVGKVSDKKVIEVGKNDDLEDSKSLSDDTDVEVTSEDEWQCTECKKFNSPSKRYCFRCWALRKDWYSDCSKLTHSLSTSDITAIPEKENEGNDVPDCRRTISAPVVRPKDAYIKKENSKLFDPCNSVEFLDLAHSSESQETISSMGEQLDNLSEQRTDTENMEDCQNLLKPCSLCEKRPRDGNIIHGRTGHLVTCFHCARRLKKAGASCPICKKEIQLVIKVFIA
Procedure: as §1
as §2, with “Western blot analysis of certain compounds is performed to determine p53, MDM2, and p21 content.” left out

[1] = imidazolidine scaffold, Table 3

GI50 (HCT116 cells)	Ki (MDM2; [1])	Structure (SMILES)	other results
~35 µM	–	Clc1ccc(-c2ncn(CC3CC3)c2-c2c[nH]c3ccccc23)cc1	–
~25 µM	–	Clc1cccc(Cc2ncn(CC3CC3)c2-c2c[nH]c3ccccc23)c1	–
~10 µM	–	Clc1ccc(-c2ncn(CC3CC3)c2-c2ccc(Cl)cc2)cc1	Ki (MDM2; imidazole scaffold, Table 2): ~50 µM
~40 µM	–	Clc1ccc(-c2ncn(CC3CC3)c2-c2cc3ccc(Cl)cc3[nH]2)cc1	–
~40 µM	–	Clc1ccc(-c2ncn(CC3CC3)c2-c2c[nH]c3cc(Cl)ccc23)cc1	–
~30 µM	–	CC(c1ccc(Cl)cc1)n1cnc(-c2ccc(Cl)cc2)c1-c1cc2ccc(Cl)cc2[nH]1 (stereo not shown)	–
~20 µM	–	C[C@@H](c1ccc(Cl)cc1)n1cnc(-c2ccc(Cl)cc2)c1-c1cc2ccc(Cl)cc2[nH]1	–
~20 µM	–	C[C@H](c1ccc(Cl)cc1)n1cnc(-c2ccc(Cl)cc2)c1-c1cc2ccc(Cl)cc2[nH]1	–
~5 µM	–	CC(c1cccc2ccccc12)n1cnc(-c2ccc(Cl)cc2)c1-c1cc2ccc(Cl)cc2[nH]1 (stereo not shown)	–
~1 µM	–	Clc1ccc2c(-c3c(-c4ccc5c(c4)OCO5)ncn3CC3CC3)c[nH]c2c1	–
~10 µM	–	Clc1ccc2c(-c3c(-c4ccc(Cl)c(Cl)c4)ncn3CC3CC3)c[nH]c2c1	–
~20 µM	–	Fc1cc(Cl)ccc1-c1c(-c2ccc(Cl)cc2)ncn1Cc1ccccc1	–
~50 µM	–	CC(C)(C)OC(=O)n1cc(-c2c(-c3ccc(Cl)cc3)ncn2CC2CC2)c2ccc(Cl)cc21	–
~20 µM	–	CN(C)Cc1nc(-c2ccc(Cl)cc2)c(-c2ccc(Cl)cc2)n1CC1CC1	–
–	~10 µM	COC(=O)C1(c2ccccc2)N=CN(CC(C)C)C1c1ccc(Cl)cc1 (stereo not shown)	–
–	~20 µM	COC(=O)C1(c2ccccc2)N=CN(C2CCCCC2)C1c1ccc(Cl)cc1 (stereo not shown)	–
–	~50 µM	COC(=O)C1(c2ccc(Cl)cc2)N=CN(CC2CC2)C1c1cc2ccc(Cl)cc2[nH]1 (stereo not shown)	–
–	~20 µM	COC(=O)C1(CCSC)N=CN(CC2CC2)C1c1ccc(Br)cc1 (stereo not shown)	–
–	~50 µM	COC(=O)C1(C)N=CN(CC2CC2)C1c1c[nH]c2ccccc12 (stereo not shown)	–
–	~30 µM	COC(=O)C1(c2ccccc2)N=CN(CC2CC2)C1c1c[nH]c2ccccc12 (stereo not shown)	–

GI50 (HCT116 cells)	Ki (MDM2; [1])	Structure (SMILES)	other results
–	~6 µM	COC(=O)C1(c2ccccc2)N=CN(CC2CC2)C1c1ccc(Br)cc1 (stereo not shown)	–
–	~20 µM	COC(=O)C1(c2ccccc2)N=CN(CC2CCCNC2)C1c1ccc(Cl)cc1 (stereo not shown)	–
–	~5 µM	COC(=O)C1(c2ccccc2)N=CN(Cc2cccc(N)c2)C1c1ccc(Cl)cc1 (stereo not shown)	Ki (MDM4): ~5 µM
–	~1 µM	COC(=O)C1(CC(C)C)N=CN(CC2CC2)C1c1ccc(Cl)cc1 (stereo not shown)	–
–	~2 µM	COC(=O)C1(C)N=CN(CC2CC2)C1c1ccc(Cl)cc1 (stereo not shown)	–
–	~50 µM	O=C(O)C1(c2ccccc2)N=CN(CC2CC2)C1c1ccc(Cl)cc1 (stereo not shown)	–
–	~50 µM	COC(=O)C1(c2ccccc2)N=CN(C2CCNCC2)C1c1ccc(Cl)cc1 (stereo not shown)	–
–	~20 µM	COC(=O)C1(c2ccccc2)N=CN(C(C)c2ccc(Cl)cc2)C1c1ccc(Cl)cc1 (stereo not shown)	–
–	~5 µM	COC(=O)C1(c2ccccc2)N=CN(c2ccc(Cl)cc2)C1c1ccc(Cl)cc1 (stereo not shown)	–
–	1 µM	O=C(NCCN1CCOCC1)C1(c2ccccc2)N=CN(CC2CC2)C1c1ccc(Cl)cc1 (stereo not shown)	–
–	1 µM	O=C(NCCCN1CCOCC1)C1(c2ccccc2)N=CN(CC2CC2)C1c1ccc(Cl)cc1 (stereo not shown)	–
–	~40 µM	COC(=O)C1(c2ccccc2)N=CN(CC2CC2)C1c1cc2ccc(Cl)cc2[nH]1 (stereo not shown)	–
–	~50 µM	COC(=O)C1(C)N=CN(CC2CC2)C1c1cc2ccc(Cl)cc2[nH]1 (stereo not shown)	–
–	~10 µM	COC(=O)C1(CCSC)N=CN(CC2CC2)C1c1ccc(Cl)cc1 (stereo not shown)	–
–	~5 µM	COC(=O)C1(c2ccccc2)N=CN(Cc2cccnc2)C1c1ccc(Cl)cc1 (stereo not shown)	–
–	~1 µM	O=C(N1CCNCC1)C1(c2ccccc2)N=CN(CC2CC2)C1c1ccc(Cl)cc1 (stereo not shown)	–
–	~5 µM	COC(=O)C1(c2ccc(Cl)cc2)N=CN(CC2CC2)C1c1ccc(Cl)cc1 (stereo not shown) [drawing 44]	–
–	~2 µM	COC(=O)C1(c2ccccc2)N=CN(CC2CC2)C1c1ccc(Cl)cc1F (stereo not shown) [drawing 45]	–
–	~2 µM	COC(=O)C1(c2ccccc2)N=CN(CC2CC2)C1c1ccc(Cl)cc1F (stereo not shown) [drawing 58]	–
–	~40 µM	COC(=O)C1(c2ccc(Cl)cc2)N=CN(CC2CC2)C1c1ccc(Cl)cc1 (stereo not shown) [drawing 67]	–

Structure (SMILES)	GI50 (HCT116 cells)	Ki (MDM2; [1])	other results
COC(=O)C12N=CN(CC3CC3)C1c1ccc(Cl)cc1C2C (stereo not shown)	–	~2 µM	–
